Experimental data as given in US20250186405A1, “Compound For Use In Treating Narcolepsy” (Alkermes, Inc., priority 2023, published 2025).
Where “and” joins values, the source holds several entries; their conditions need not be identical. Equal values may be shown once.

Key:
[1] = test system: subjects with idiopathic hypersomnia (IH); assay: Part 6 IH: Karolinska Sleepiness Scale (KSS); assay type: in vivo, human; details: for Change From Day −1 in Average Karolinska Sleepiness Scale, LSM difference vs placebo: N = 8; for Change From Day −1 in Average Karolinska Sleepiness Scale, LSM: N = 8, average of 1, 2, 4, 6, 8 h
Procedure: At points within the study, subjects were asked to rate their sleepiness using the KSS with regard to the level of sleepiness they experienced over the past 5 minutes.
The KSS is a validated, self-reported outcome measure of subjective sleepiness. The KSS was developed as a one-dimensional measure of sleepiness and has been validated against assessments like EEG and electrooculography activity (Akerstedt and Gillberg 1990). The KSS is comprised of a single question that asks the subject to rate their sleepiness in the immediately preceding 5 minutes on a 9-point scale where 1=extremely alert and 9=very sleepy, great effort to keep awake, fighting sleep. The KSS takes approximately 10 to 15 seconds to complete. Thus, the KSS is well suited for repeated measurement at short intervals as it assesses situational sleepiness within a short timeframe.
The PD parameters in the POC evaluation (e.g., changes from baseline in sleep latency on MWT, number of errors on SART and level of sleepiness on KSS at matched time points) were summarized using descriptive statistics for each time point by dose level.

[2] = test system: subjects with narcolepsy type-2 (NT2); details: human, in vivo
Procedure: Part 5 consisted of a 4-way, 4-period crossover study design in approximately 8 subjects (2 subjects per sequence; minimum of 4 subjects with 1 subject per sequence). Subjects were randomized 1:1:1:1 to 1 of 4 sequences with 4 treatment periods (3 single doses of Compound A and 1 dose of matching placebo), with up to 48 hours of washout between treatments. Treatments were administered under fasted state.
Subjects were randomized to 1 of 4 sequences. […] In each period, subjects were administered a single dose of study drug (either Compound A or placebo) as per the randomization schedule with approximately 240 mL of noncarbonated water following overnight fasting. No food was given for at least 3 hours after dose administration (i.e., fast can be broken after the 3-hour PK time point is collected). Water was allowed ad libitum except for 1 hour before and 1 hour after study drug administration. Safety assessments including AEs, safety ECGs, vital signs, and clinical laboratory tests were conducted, and plasma PK samples were collected. Furthermore, BP and HR were monitored once every hour for 12 hours on the dosing days.
Adverse events (AEs) and serious adverse events (SAEs) were monitored continuously until the completion of the study.
Nine subjects with NT2 were dosed in Part 5 (POC in NT2) in a randomized 4-sequence 4-period cross-over design. Each dose of Compound A or matching placebo was separated by 2 days. A 14-day washout period preceded the treatment period and included discontinuation of narcolepsy medications. All 9 subjects underwent the washout period and received at least one dose of Compound A. All subjects completed all 4-way randomized crossover periods.

[3] = test system: subjects with narcolepsy type-2 (NT2); assay: Part 5 NT2: Maintenance of Wakefulness Test (MWT) sleep latency; assay type: in vivo, human; details: for Change from Day −1 in Average Sleep Latency on the MWT, LSM / Change from Day −1 in Average Sleep Latency on the MWT, LSM difference vs placebo: NT2, N = 9; for Average Sleep Latency on the MWT, Change from Day −1, Mean (SD) / Average Sleep Latency on the MWT, Change from Day −1, Median / Average Sleep Latency on the MWT, Dosing Day, Mean (SD) / Average Sleep Latency on the MWT, Dosing Day, Median: NT2, n = 9; for LS mean difference vs placebo in change from baseline, average MWT sleep latency: 2-8 hours post-dose
Procedure: On Day −1, approximately 25 hours prior to study drug administration (on Day 1), baseline assessments for Maintenance of Wakefulness Test (MWT) began and were collected in a series of trials over approximately 10 hours.
At specified time points (Parts 5 and 6), MWT assessments were performed and took up to 40 minutes to complete. During the MWT trials, subjects were seated in a bed or reclining chair in a darkened room with their back and head supported such that their neck is not uncomfortably flexed or extended. Subjects were instructed to sit still and remain awake for as long as possible during each 40-minute trial. If the subject fell asleep during a trial, they were awakened, and the trial was terminated. […] Upon completion of the trial, the subject returned to a normal environment/ambiance and remained awake (and were awakened if they fall asleep) until the next trial.
Once Parts 5 and 6 were completed, the EEG data recorded during the MWT, as well as the technician notes, were transferred to the EEG vendor for further analysis. Technician notes were also maintained for transfer to Sponsor at the end of the study. A precise assessment of sleep latency was conducted by an experienced sleep scorer from the EEG vendor, and spectral analysis was performed on the EEG data recorded during MWT to assess absolute and relative powers in standard frequency bands (i.e., qEEG). All raw data and analysis results were transferred to the Sponsor.
For the changes from baseline in average sleep latency across the first 4 sessions of the MWT, descriptive statistics were provided by dose level. Mixed model with repeated measure (MMRM) for the 4-period crossover design were conducted with the change from baseline as a dependent variable, and the dose level and the period as fixed factors. The differences in the least square means between each Compound A dose level and the placebo (each Compound A dose level—the placebo), and the 2-sided CIs were provided.
Evaluation of Compound A effects on average sleep latency across 4 timepoints of MWT (2-, 4-, 6-, and 8-hours post-dose) has been conducted at each of the crossover periods (Days 1, 3, 5 and 7), testing placebo, and active dose levels of 5, 12, and 25 mg in the patients with NT2 compared to placebo. At pre-dose baseline on Day −1, MWT assessment was taken at similar times (2-, 4-, 6-, and 8-hours) as planned on dosing days assuming a dosing time of approximately 9 AM. Mean (SD) of baseline MWT average across the 4 time points on Day −1 was 14.31 (11.201), with high variability observed for NT2 subjects.

`CS(=O)(=O)N[C@H]1CCCN2C(=O)COc3ccccc3C3CCC(CC3)OCC12` (stereo partly drawn) [Compound A, N-[(4S,4aR,7α,10α)-1,2,3,4,4a,5,7,8,9,10,16,17-dodecahydro-17-oxo-7,10-ethanopyrido[1,2-d][1,7,4]benzodioxaazacyclotridecin-4-yl]methanesulfonamide] was tested, and the “LS mean difference vs placebo in change from Day −1, average KSS” value ([1]; 5 mg) was −1.08, the “Change From Day −1 in Average Karolinska Sleepiness Scale, LSM difference vs placebo” value ([1]; 5 mg) was −1.08 and the “Change From Day −1 in Average Karolinska Sleepiness Scale, LSM” value ([1]; 5 mg) was −1.60. The “LS mean difference vs placebo in change from Day −1, average KSS” value ([1]; 12 mg) was −0.80, the “Change From Day −1 in Average Karolinska Sleepiness Scale, LSM difference vs placebo” value ([1]; 12 mg) was −0.80 and the “Change From Day −1 in Average Karolinska Sleepiness Scale, LSM” value ([1]; 12 mg) was −1.33. The “LS mean difference vs placebo in change from Day −1, average KSS” value ([1]; 25 mg) was −2.18, the “Change From Day −1 in Average Karolinska Sleepiness Scale, LSM difference vs placebo” value ([1]; 25 mg) was −2.18 and the “Change From Day −1 in Average Karolinska Sleepiness Scale, LSM” value ([1]; 25 mg) was −2.70. For the same compound, the “TEAE by Preferred Term: Influenza” value [2] was 1 (11.1) n (%), the “Change from Day −1 in Average Sleep Latency on the MWT, LSM” value ([3]; 5 mg) was 11.68 min and the “Change from Day −1 in Average Sleep Latency on the MWT, LSM difference vs placebo” value (shortened to “Change … on the MWT, LSM difference vs placebo”) ([3]; 5 mg) was 11.60 min. For the same compound, the “Average Sleep Latency on the MWT, Change from Day −1, Mean (SD)” value ([3]; 5 mg) was 11.65 (14.736) minutes, the “Average Sleep Latency on the MWT, Change from Day −1, Median” value ([3]; 5 mg) was 8.50 min and the “Average Sleep Latency on the MWT, Dosing Day, Mean (SD)” value ([3]; 5 mg) was 25.95 (12.409) minutes. For the same compound, the “Average Sleep Latency on the MWT, Dosing Day, Median” value ([3]; 5 mg) was 26.63 min, the “Change from Day −1 in Average Sleep Latency on the MWT, LSM” value ([3]; 12 mg) was 18.63 min and the “Change … on the MWT, LSM difference vs placebo” value ([3]; 12 mg) was 18.55 min. The “Average Sleep Latency on the MWT, Change from Day −1, Mean (SD)” value ([3]; 12 mg) was 18.63 (10.892) minutes, the “Average Sleep Latency on the MWT, Change from Day −1, Median” value ([3]; 12 mg) was 19.50 min and the “Average Sleep Latency on the MWT, Dosing Day, Mean (SD)” value ([3]; 12 mg) was 32.93 (9.836) minutes. The “Average Sleep Latency on the MWT, Dosing Day, Median” value ([3]; 12 mg) was 40.00 min, the “Change from Day −1 in Average Sleep Latency on the MWT, LSM” value ([3]; 25 mg) was 21.04 min and the “Change … on the MWT, LSM difference vs placebo” value ([3]; 25 mg) was 20.96 min. The “Average Sleep Latency on the MWT, Change from Day −1, Mean (SD)” value ([3]; 25 mg) was 21.14 (12.126) minutes, the “Average Sleep Latency on the MWT, Change from Day −1, Median” value ([3]; 25 mg) was 17.25 min and the “Average Sleep Latency on the MWT, Dosing Day, Mean (SD)” value ([3]; 25 mg) was 35.44 (7.720) minutes. For the same compound, the “Average Sleep Latency on the MWT, Dosing Day, Median” value ([3]; 25 mg) was 40.00 min, the “LS mean difference vs placebo in change from baseline, average MWT sleep latency” value ([3]; NT2, 5 mg) was 11.60 min and 11.6 min and 12 min and the “observed mean MWT score over 8-hour period post-dose” value ([3]; NT2, 12 mg) was ≥ 30 min. For the same compound, the “LS mean difference vs placebo in change from baseline, average MWT sleep latency” value ([3]; NT2, 12 mg) was 18.55 min and 18.6 min and 19 min, the “observed mean MWT score over 8-hour period post-dose” value ([3]; NT2, 25 mg) was ≥ 30 min and the “LS mean difference vs placebo in change from baseline, average MWT sleep latency” value ([3]; NT2, 25 mg) was 20.96 min and 21.0 min and 21 min.
